In the kinase profiling compilation of Christmann-Franck et al. (2016):

Columns and labels:
Test in all cases: radiometric filter-binding kinase assay
MARK2 (human) = MARK2 (human) (UniProt Q7KZI7)
PAK6 (human) = PAK6 (human) (UniProt Q9NQU5)
RPS6KA3 KD1 KD2 (human) = RPS6KA3 KD1 KD2 (human) (UniProt P51812)
PIM2 (human) = PIM2 (human) (UniProt Q9P1W9)
[1] = system: PAK2 (human), Q13177 [T402E]
PAK7 (human) = PAK7 (human) (UniProt Q9P286)
SRPK1 (human) = SRPK1 (human) (UniProt Q96SB4)
PIM3 (human) = PIM3 (human) (UniProt Q86V86)
NEK6 (human) = NEK6 (human) (UniProt Q9HC98)
PLK1 (human) = PLK1 (human) (UniProt P53350)
MAPK14 (human) = MAPK14 (human) (UniProt Q16539)
IKBKE (human) = IKBKE (human) (UniProt Q14164)
NEK2 (human) = NEK2 (human) (UniProt P51955)
DYRK1A (human) = DYRK1A (human) (UniProt Q13627)
MAPKAPK2 (human) = MAPKAPK2 (human) (UniProt P49137)
MAP3K7 TAB1 (human) = MAP3K7 TAB1 (human) (UniProt Q15750+O43318)
CSNK1D (human) = CSNK1D (human) (UniProt P48730)
CHEK1 (human) = CHEK1 (human) (UniProt O14757)
RIPK2 (human) = RIPK2 (human) (UniProt O43353)
MAPK12 (human) = MAPK12 (human) (UniProt P53778)
HIPK3 (human) = HIPK3 (human) (UniProt Q9H422)
PKN2 (human) = PKN2 (human) (UniProt Q16513)
CAMKK2 (human) = CAMKK2 (human) (UniProt Q96RR4)
MST4 (human) = MST4 (human) (UniProt Q9P289)
RPS6KA5 KD1 KD2 (human) = RPS6KA5 KD1 KD2 (human) (UniProt O75582)
[2] = system: SGK1 (human), O00141 [S422D]
IGF1R (human) = IGF1R (human) (UniProt P08069)
MAPK15 (human) = MAPK15 (human) (UniProt Q8TD08)
MAPK3 (human) = MAPK3 (human) (UniProt P27361)
IRAK4 (human) = IRAK4 (human) (UniProt Q9NWZ3)
[3] = system: AKT2 (human), P31751 [S474D]
MARK1 (human) = MARK1 (human) (UniProt Q9P0L2)
EPHA4 (human) = EPHA4 (human) (UniProt P54764)
CLK2 (human) = CLK2 (human) (UniProt P49760)
PAK4 (human) = PAK4 (human) (UniProt O96013)

PAK6 (human), sequence (Q9NQU5 whole entry, looked up): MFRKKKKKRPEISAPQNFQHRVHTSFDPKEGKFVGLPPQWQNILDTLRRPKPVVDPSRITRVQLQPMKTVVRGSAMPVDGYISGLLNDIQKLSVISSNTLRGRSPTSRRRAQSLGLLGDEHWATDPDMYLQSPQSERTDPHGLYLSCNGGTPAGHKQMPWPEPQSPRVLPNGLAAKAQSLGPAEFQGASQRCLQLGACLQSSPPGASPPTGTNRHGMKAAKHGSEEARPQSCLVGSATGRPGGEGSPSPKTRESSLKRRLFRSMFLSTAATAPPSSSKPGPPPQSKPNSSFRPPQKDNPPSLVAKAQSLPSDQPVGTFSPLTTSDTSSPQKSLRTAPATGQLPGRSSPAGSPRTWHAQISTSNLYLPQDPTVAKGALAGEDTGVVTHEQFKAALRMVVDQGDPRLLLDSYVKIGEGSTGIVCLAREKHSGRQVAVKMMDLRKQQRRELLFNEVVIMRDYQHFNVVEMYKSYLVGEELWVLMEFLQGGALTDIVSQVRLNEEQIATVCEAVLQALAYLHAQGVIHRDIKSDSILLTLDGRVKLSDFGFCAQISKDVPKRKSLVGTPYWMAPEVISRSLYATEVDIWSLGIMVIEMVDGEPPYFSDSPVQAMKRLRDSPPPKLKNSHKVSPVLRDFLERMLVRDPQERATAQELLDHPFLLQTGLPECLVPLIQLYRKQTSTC
NEK6 (human), sequence (Q9HC98 whole entry, looked up): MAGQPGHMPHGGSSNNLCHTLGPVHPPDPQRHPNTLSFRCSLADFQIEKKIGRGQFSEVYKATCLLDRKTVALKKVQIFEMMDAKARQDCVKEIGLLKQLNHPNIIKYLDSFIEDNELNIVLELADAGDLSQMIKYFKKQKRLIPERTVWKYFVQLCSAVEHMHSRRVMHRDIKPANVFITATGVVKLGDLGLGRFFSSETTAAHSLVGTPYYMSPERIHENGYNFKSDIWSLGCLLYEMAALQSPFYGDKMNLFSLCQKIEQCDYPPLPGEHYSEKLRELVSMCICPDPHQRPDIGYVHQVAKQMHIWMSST
CSNK1D (human), sequence (P48730 whole entry, looked up): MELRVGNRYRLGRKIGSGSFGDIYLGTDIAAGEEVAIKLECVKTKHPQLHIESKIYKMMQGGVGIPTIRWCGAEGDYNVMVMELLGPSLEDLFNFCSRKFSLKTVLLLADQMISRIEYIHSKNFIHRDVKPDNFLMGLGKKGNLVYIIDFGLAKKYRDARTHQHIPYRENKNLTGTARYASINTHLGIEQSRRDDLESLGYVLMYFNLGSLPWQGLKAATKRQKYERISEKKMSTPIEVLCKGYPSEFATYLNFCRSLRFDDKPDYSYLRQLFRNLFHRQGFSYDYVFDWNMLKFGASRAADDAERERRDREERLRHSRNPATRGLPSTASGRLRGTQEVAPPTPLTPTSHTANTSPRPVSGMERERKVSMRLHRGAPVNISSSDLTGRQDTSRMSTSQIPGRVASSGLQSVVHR
PAK2 (human), Q13177 [T402E], sequence (Q13177 whole entry T402E, looked up): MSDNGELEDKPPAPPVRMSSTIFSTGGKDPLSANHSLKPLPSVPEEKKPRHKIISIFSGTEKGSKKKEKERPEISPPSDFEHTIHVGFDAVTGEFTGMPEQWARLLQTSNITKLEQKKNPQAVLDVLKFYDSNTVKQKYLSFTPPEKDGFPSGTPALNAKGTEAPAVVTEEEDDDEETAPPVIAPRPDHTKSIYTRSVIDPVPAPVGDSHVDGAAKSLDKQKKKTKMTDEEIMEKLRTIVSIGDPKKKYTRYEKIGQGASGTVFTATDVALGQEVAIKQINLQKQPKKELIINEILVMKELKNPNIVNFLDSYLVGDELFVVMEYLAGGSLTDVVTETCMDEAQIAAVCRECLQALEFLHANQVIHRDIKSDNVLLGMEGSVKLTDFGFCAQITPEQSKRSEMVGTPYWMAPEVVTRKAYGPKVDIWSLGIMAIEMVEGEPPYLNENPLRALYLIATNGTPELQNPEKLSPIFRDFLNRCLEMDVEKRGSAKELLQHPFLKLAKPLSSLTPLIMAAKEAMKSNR
RPS6KA5 KD1 KD2 (human), sequence (O75582 whole entry, looked up): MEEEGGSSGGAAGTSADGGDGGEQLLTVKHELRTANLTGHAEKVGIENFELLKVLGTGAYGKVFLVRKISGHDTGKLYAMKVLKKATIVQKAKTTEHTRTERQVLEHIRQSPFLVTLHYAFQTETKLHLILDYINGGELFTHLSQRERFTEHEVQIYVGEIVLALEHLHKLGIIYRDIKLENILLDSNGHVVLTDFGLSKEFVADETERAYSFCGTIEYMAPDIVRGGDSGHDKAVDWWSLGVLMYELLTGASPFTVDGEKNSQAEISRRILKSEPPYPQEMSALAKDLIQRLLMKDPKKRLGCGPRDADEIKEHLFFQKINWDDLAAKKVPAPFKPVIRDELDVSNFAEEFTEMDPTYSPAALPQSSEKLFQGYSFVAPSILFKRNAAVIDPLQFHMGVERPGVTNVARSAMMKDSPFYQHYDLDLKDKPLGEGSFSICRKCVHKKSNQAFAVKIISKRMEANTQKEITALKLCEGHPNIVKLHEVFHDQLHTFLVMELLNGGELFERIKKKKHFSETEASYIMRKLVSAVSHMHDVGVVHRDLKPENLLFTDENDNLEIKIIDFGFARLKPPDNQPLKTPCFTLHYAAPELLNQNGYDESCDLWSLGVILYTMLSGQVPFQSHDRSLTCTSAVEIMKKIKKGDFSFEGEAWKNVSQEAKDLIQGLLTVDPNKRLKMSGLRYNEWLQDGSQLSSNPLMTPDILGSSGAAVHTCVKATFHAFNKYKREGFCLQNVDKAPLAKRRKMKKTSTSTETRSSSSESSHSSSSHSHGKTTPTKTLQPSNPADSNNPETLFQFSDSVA
EPHA4 (human), sequence (P54764 whole entry, looked up): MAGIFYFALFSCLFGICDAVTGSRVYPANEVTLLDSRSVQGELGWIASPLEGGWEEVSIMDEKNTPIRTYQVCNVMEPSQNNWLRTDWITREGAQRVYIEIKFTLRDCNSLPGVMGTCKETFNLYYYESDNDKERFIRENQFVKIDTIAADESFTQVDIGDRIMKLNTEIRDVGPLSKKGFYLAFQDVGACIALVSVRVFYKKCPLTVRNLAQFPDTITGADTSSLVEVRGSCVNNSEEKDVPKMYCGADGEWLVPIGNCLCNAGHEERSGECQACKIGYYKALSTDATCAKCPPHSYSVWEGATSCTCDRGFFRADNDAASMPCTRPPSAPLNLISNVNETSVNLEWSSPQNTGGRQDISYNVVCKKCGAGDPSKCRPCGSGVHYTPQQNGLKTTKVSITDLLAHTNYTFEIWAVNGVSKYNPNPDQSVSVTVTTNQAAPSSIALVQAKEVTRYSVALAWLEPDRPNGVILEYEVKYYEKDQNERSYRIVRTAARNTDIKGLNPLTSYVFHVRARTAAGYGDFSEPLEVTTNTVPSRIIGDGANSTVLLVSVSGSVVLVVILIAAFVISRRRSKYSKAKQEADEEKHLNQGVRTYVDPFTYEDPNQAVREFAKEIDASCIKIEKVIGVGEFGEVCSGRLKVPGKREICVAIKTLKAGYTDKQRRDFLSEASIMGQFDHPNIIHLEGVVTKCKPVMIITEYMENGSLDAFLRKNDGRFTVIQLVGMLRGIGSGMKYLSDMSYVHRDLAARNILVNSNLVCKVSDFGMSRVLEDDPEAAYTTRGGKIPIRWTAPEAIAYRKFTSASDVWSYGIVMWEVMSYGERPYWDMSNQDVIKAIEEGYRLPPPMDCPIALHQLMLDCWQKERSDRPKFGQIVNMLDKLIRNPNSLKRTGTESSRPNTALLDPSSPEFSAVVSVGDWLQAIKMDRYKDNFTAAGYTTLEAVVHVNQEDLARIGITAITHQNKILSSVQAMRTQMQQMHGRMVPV
PIM2 (human), sequence (Q9P1W9 whole entry, looked up): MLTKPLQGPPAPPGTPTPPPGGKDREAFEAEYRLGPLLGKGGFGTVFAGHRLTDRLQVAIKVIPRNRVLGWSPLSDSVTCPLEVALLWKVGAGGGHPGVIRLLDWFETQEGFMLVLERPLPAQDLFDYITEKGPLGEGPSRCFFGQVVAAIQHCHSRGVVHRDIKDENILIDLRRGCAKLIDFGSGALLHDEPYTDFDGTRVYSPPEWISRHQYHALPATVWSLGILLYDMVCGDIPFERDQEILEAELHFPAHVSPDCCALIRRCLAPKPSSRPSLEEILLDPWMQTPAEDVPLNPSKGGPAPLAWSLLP
AKT2 (human), P31751 [S474D], sequence (P31751 whole entry S474D, looked up): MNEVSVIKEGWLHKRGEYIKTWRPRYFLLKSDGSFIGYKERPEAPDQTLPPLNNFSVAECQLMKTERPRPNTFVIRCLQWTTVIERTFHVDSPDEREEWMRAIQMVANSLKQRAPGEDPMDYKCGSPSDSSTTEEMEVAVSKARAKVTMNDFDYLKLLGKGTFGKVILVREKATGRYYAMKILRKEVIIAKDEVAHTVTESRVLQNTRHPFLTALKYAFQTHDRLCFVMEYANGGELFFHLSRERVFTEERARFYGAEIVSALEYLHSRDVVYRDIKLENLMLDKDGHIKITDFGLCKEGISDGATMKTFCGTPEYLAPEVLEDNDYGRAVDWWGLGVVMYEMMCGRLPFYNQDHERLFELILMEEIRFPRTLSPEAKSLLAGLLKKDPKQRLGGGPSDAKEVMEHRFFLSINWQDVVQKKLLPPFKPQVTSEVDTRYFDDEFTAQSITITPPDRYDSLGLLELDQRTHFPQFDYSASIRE
SGK1 (human), O00141 [S422D], sequence (O00141 whole entry S422D, looked up): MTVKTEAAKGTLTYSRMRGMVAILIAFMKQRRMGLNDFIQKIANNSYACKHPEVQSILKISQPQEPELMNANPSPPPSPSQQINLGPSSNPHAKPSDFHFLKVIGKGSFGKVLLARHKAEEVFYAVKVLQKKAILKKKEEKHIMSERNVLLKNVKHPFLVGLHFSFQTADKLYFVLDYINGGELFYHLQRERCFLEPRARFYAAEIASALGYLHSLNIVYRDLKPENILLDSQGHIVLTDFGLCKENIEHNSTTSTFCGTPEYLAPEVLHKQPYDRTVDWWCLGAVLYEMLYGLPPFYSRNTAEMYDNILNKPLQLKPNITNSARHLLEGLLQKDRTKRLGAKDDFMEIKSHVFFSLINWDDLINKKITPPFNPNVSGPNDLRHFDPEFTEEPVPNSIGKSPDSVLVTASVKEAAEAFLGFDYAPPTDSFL

`Cc1ccc(-c2ccc3c(ccc4sc5c(c43)NC[C@@H](C)NC5=O)n2)cn1` showed a residual activity (MARK2 (human); compound 0.1 µM) of 116%, a residual activity (MARK2 (human); compound 1.0 µM) of 113% and a residual activity (MARK2 (human); compound 10.0 µM) of 95%. The residual activity (PAK6 (human); compound 0.1 µM) was 117%, the residual activity (PAK6 (human); compound 1.0 µM) was 106% and the residual activity (PAK6 (human); compound 10.0 µM) was 116%. The residual activity (RPS6KA3 KD1 KD2 (human); compound 0.1 µM) was 104%, the residual activity (RPS6KA3 KD1 KD2 (human); compound 1.0 µM) was 79% and the residual activity (RPS6KA3 KD1 KD2 (human); compound 10.0 µM) was 50%. The residual activity (PIM2 (human); compound 0.1 µM) was 103%, the residual activity (PIM2 (human); compound 1.0 µM) was 103% and the residual activity (PIM2 (human); compound 10.0 µM) was 66%. For the same molecule, the residual activity ([1]; compound 0.1 µM) was 102%, the residual activity ([1]; compound 1.0 µM) was 103% and the residual activity ([1]; compound 10.0 µM) was 93%. For the same molecule, the residual activity (PAK7 (human); compound 0.1 µM) was 108%, the residual activity (PAK7 (human); compound 1.0 µM) was 101% and the residual activity (PAK7 (human); compound 10.0 µM) was 101%. The residual activity (SRPK1 (human); compound 0.1 µM) was 89%, the residual activity (SRPK1 (human); compound 1.0 µM) was 63% and the residual activity (SRPK1 (human); compound 10.0 µM) was 19%. The residual activity (PIM3 (human); compound 0.1 µM) was 55%, the residual activity (PIM3 (human); compound 1.0 µM) was 18% and the residual activity (PIM3 (human); compound 10.0 µM) was 3%. The residual activity (NEK6 (human); compound 0.1 µM) was 109%, the residual activity (NEK6 (human); compound 1.0 µM) was 96% and the residual activity (NEK6 (human); compound 10.0 µM) was 66%. The residual activity (PLK1 (human); compound 0.1 µM) was 102%, the residual activity (PLK1 (human); compound 1.0 µM) was 114% and the residual activity (PLK1 (human); compound 10.0 µM) was 98%. The residual activity (MAPK14 (human); compound 0.1 µM) was 94%, the residual activity (MAPK14 (human); compound 1.0 µM) was 94% and the residual activity (MAPK14 (human); compound 10.0 µM) was 83%. It also gave a residual activity (IKBKE (human); compound 0.1 µM) of 98%, a residual activity (IKBKE (human); compound 1.0 µM) of 95% and a residual activity (IKBKE (human); compound 10.0 µM) of 44%. It also gave a residual activity (NEK2 (human); compound 0.1 µM) of 108%, a residual activity (NEK2 (human); compound 1.0 µM) of 99% and a residual activity (NEK2 (human); compound 10.0 µM) of 88%. The residual activity (DYRK1A (human); compound 0.1 µM) was 80%, the residual activity (DYRK1A (human); compound 1.0 µM) was 31% and the residual activity (DYRK1A (human); compound 10.0 µM) was 8%. For the same molecule, the residual activity (MAPKAPK2 (human); compound 0.1 µM) was 24%, the residual activity (MAPKAPK2 (human); compound 1.0 µM) was 9% and the residual activity (MAPKAPK2 (human); compound 10.0 µM) was 2%. The residual activity (MAP3K7 TAB1 (human); compound 0.1 µM) was 113%, the residual activity (MAP3K7 TAB1 (human); compound 1.0 µM) was 109% and the residual activity (MAP3K7 TAB1 (human); compound 10.0 µM) was 70%. For the same molecule, the residual activity (CSNK1D (human); compound 0.1 µM) was 96%, the residual activity (CSNK1D (human); compound 1.0 µM) was 96% and the residual activity (CSNK1D (human); compound 10.0 µM) was 92%. The residual activity (CHEK1 (human); compound 1.0 µM) was 109%, the residual activity (CHEK1 (human); compound 10.0 µM) was 112% and the residual activity (RIPK2 (human); compound 0.1 µM) was 93%. For the same molecule, the residual activity (RIPK2 (human); compound 10.0 µM) was 39%, the residual activity (MAPK12 (human); compound 0.1 µM) was 108% and the residual activity (MAPK12 (human); compound 1.0 µM) was 115%. The residual activity (MAPK12 (human); compound 10.0 µM) was 97%, the residual activity (HIPK3 (human); compound 0.1 µM) was 112% and the residual activity (HIPK3 (human); compound 1.0 µM) was 108%. It also gave a residual activity (HIPK3 (human); compound 10.0 µM) of 96%, a residual activity (PKN2 (human); compound 0.1 µM) of 108% and a residual activity (PKN2 (human); compound 1.0 µM) of 101%. For the same molecule, the residual activity (PKN2 (human); compound 10.0 µM) was 81%, the residual activity (CAMKK2 (human); compound 0.1 µM) was 107% and the residual activity (CAMKK2 (human); compound 10.0 µM) was 28%. For the same molecule, the residual activity (MST4 (human); compound 1.0 µM) was 101%, the residual activity (MST4 (human); compound 10.0 µM) was 91% and the residual activity (RPS6KA5 KD1 KD2 (human); compound 0.1 µM) was 120%. For the same molecule, the residual activity (RPS6KA5 KD1 KD2 (human); compound 1.0 µM) was 105%, the residual activity (RPS6KA5 KD1 KD2 (human); compound 10.0 µM) was 99% and the residual activity ([2]; compound 0.1 µM) was 116%. The residual activity ([2]; compound 1.0 µM) was 112%, the residual activity ([2]; compound 10.0 µM) was 112% and the residual activity (IGF1R (human); compound 0.1 µM) was 101%. It also gave a residual activity (IGF1R (human); compound 1.0 µM) of 108%, a residual activity (IGF1R (human); compound 10.0 µM) of 114% and a residual activity (MAPK15 (human); compound 0.1 µM) of 96%. For the same molecule, the residual activity (MAPK15 (human); compound 1.0 µM) was 79%, the residual activity (MAPK15 (human); compound 10.0 µM) was 38% and the residual activity (MAPK3 (human); compound 0.1 µM) was 111%. For the same molecule, the residual activity (MAPK3 (human); compound 1.0 µM) was 108%, the residual activity (IRAK4 (human); compound 0.1 µM) was 94% and the residual activity (IRAK4 (human); compound 1.0 µM) was 62%. The residual activity (IRAK4 (human); compound 10.0 µM) was 24%, the residual activity ([3]; compound 1.0 µM) was 90% and the residual activity ([3]; compound 10.0 µM) was 69%. For the same molecule, the residual activity (MARK1 (human); compound 0.1 µM) was 116%, the residual activity (MARK1 (human); compound 1.0 µM) was 107% and the residual activity (MARK1 (human); compound 10.0 µM) was 93%. The residual activity (EPHA4 (human); compound 0.1 µM) was 99%, the residual activity (EPHA4 (human); compound 1.0 µM) was 103% and the residual activity (EPHA4 (human); compound 10.0 µM) was 78%. For the same molecule, the residual activity (CLK2 (human); compound 0.1 µM) was 86%, the residual activity (CLK2 (human); compound 1.0 µM) was 43% and the residual activity (CLK2 (human); compound 10.0 µM) was 9%. The residual activity (PAK4 (human); compound 0.1 µM) was 103%, the residual activity (PAK4 (human); compound 1.0 µM) was 88% and the residual activity (PAK4 (human); compound 10.0 µM) was 82%.

`Cc1ccc2c(c1)C(=O)[C@@]1(O)CCN(c3ccccc3)C1=N2` gave a residual activity (MARK2 (human); compound 10.0 µM) of 93%, a residual activity (PAK6 (human); compound 10.0 µM) of 83% and a residual activity (RPS6KA3 KD1 KD2 (human); compound 10.0 µM) of 72%. It also gave a residual activity (PIM2 (human); compound 10.0 µM) of 93%, a residual activity ([1]; compound 10.0 µM) of 87% and a residual activity (PAK7 (human); compound 10.0 µM) of 73%. For the same molecule, the residual activity (SRPK1 (human); compound 10.0 µM) was 88%, the residual activity (PIM3 (human); compound 10.0 µM) was 83% and the residual activity (NEK6 (human); compound 10.0 µM) was 107%. It also gave a residual activity (NEK6 (human); compound 100.0 µM) of 85%, a residual activity (PLK1 (human); compound 10.0 µM) of 99% and a residual activity (MAPK14 (human); compound 10.0 µM) of 101%. The residual activity (MAPK14 (human); compound 100.0 µM) was 80%, the residual activity (IKBKE (human); compound 10.0 µM) was 85% and the residual activity (NEK2 (human); compound 10.0 µM) was 77%. The residual activity (NEK2 (human); compound 100.0 µM) was 82%, the residual activity (DYRK1A (human); compound 10.0 µM) was 97% and the residual activity (DYRK1A (human); compound 100.0 µM) was 90%. For the same molecule, the residual activity (MAPKAPK2 (human); compound 10.0 µM) was 82%, the residual activity (MAPKAPK2 (human); compound 100.0 µM) was 80% and the residual activity (MAP3K7 TAB1 (human); compound 10.0 µM) was 96%. The residual activity (CSNK1D (human); compound 10.0 µM) was 99%, the residual activity (CSNK1D (human); compound 100.0 µM) was 91% and the residual activity (CHEK1 (human); compound 10.0 µM) was 90%. The residual activity (CHEK1 (human); compound 100.0 µM) was 96%, the residual activity (RIPK2 (human); compound 10.0 µM) was 90% and the residual activity (MAPK12 (human); compound 10.0 µM) was 99%. For the same molecule, the residual activity (MAPK12 (human); compound 100.0 µM) was 80%, the residual activity (HIPK3 (human); compound 10.0 µM) was 103% and the residual activity (PKN2 (human); compound 10.0 µM) was 95%. For the same molecule, the residual activity (CAMKK2 (human); compound 10.0 µM) was 90%, the residual activity (MST4 (human); compound 10.0 µM) was 99% and the residual activity (RPS6KA5 KD1 KD2 (human); compound 10.0 µM) was 83%. For the same molecule, the residual activity (RPS6KA5 KD1 KD2 (human); compound 100.0 µM) was 75%, the residual activity ([2]; compound 10.0 µM) was 101% and the residual activity ([2]; compound 100.0 µM) was 60%. It also gave a residual activity (IGF1R (human); compound 10.0 µM) of 88%, a residual activity (MAPK15 (human); compound 10.0 µM) of 89% and a residual activity (MAPK3 (human); compound 10.0 µM) of 102%. It also gave a residual activity (IRAK4 (human); compound 10.0 µM) of 86%, a residual activity ([3]; compound 10.0 µM) of 74% and a residual activity (MARK1 (human); compound 10.0 µM) of 96%. For the same molecule, the residual activity (EPHA4 (human); compound 10.0 µM) was 108%, the residual activity (CLK2 (human); compound 10.0 µM) was 87% and the residual activity (PAK4 (human); compound 10.0 µM) was 90%.
